Tests used:
CSK protein = CSK protein (Homo sapiens (Human), UniProt P41240); test: CSK Inhibition Assay; assay type: biochemical
How it was run: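 Compounds, 11-point 1:3 dilutions in DMSO, were preincubated 30 min at RT with CSK and fluorescent peptide substrate, then the reaction was started with ATP (4 μM solution) and run 90 min at 25 °C before EDTA stop. Phospho-peptide conversion was read by mobility-shift separation (Caliper EZ Reader II) and converted to % inhibition for IC50.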

LCK protein = LCK protein (Homo sapiens (Human), UniProt P06239); test: LCK Inhibition Assay; assay type: biochemical
How it was run: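 Recombinant LCK (0.50 nM) preincubated 30 min at RT with compound and FLPeptide4 (2 μM) in 50 mM HEPES pH 7.5, 10 mM MgCl2, Brij-35, DTT, BSA; reaction started with ATP (400 μM solution added), run 90 min at 25 °C, EDTA-stopped. Phospho/non-phospho peptide separated by mobility shift; IC50 from % inhibition of conversion, 11-point 1:3 series.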

LCK protein, sequence (P06239 whole entry): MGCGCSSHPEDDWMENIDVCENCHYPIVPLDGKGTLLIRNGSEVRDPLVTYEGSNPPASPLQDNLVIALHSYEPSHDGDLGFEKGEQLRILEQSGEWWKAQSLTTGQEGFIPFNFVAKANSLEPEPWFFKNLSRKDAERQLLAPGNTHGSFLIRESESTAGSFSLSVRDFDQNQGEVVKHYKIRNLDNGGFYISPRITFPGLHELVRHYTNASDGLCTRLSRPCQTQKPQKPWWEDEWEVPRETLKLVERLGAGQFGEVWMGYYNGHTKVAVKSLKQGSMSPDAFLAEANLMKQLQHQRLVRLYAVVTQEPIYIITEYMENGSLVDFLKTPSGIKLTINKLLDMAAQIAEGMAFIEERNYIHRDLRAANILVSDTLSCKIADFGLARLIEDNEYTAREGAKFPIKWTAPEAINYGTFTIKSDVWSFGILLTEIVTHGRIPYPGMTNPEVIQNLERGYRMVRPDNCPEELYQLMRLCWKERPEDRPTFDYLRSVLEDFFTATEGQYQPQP

Compound | IC50 (CSK protein) [nM] | IC50 (LCK protein) [nM]
CNc1nccc(-c2c(-c3cccc(NS(=O)(=O)c4c(Cl)ccc(C)c4Cl)c3F)nc3cc(OC)ccn23)n1 [Compound 146] | 41.3 | > 1000
CNc1nccc(-c2sc(-c3cnc(C)nc3)nc2-c2cccc(NS(=O)(=O)c3c(Cl)cccc3Cl)c2F)n1 [Compound 148] | 6.9 | 100 to 1000
Cc1ncc(-c2nc(-c3cccc(NS(=O)(=O)c4c(Cl)cccc4Cl)c3F)c(-c3ccnc(NC4CC4)n3)s2)cn1 [Compound 149] | 4.5 | > 1000
Cc1ncc(-c2nc(-c3cccc(NS(=O)(=O)c4c(Cl)ccc(C)c4Cl)c3F)c(-c3ccnc(NC4CC4)n3)s2)cn1 [Compound 151] | 4.8 | > 1000
Cc1ncc(-c2nc(-c3cccc(NS(=O)(=O)c4c(F)ccc(C)c4F)c3F)c(-c3ccnc(NCCO)n3)s2)cn1 [Compound 155] | 16.6 | > 1000
Cc1ncc(-c2nc(-c3cccc(NS(=O)(=O)c4c(F)ccc(C)c4F)c3F)c(-c3ccnc(NC4CC4)n3)s2)cn1 [Compound 156] | 9.3 | > 1000
CNc1nccc(-c2sc(N(C)C)nc2-c2cccc(NS(=O)(=O)c3c(F)cccc3F)c2F)n1 [Compound 157] | 25.8 | > 1000
COc1ccn2c(-c3ccnc(NC4CC4)n3)c(-c3cccc(NS(=O)(=O)c4c(Cl)cccc4Cl)c3F)nc2c1 [Compound 158] | 170 | > 1000
COc1ccn2c(-c3ccnc(NCCO)n3)c(-c3cccc(NS(=O)(=O)c4c(Cl)cccc4Cl)c3F)nc2c1 [Compound 159] | 28.4 | > 1000
COc1ccn2c(-c3ccnc(NC4CC4)n3)c(-c3cccc(NS(=O)(=O)c4c(Cl)ccc(C)c4Cl)c3F)nc2c1 [Compound 160] | 112 | > 1000
CNc1nccc(-c2sc(N3CCC(F)(F)C3)nc2-c2cccc(NS(=O)(=O)c3c(F)cccc3F)c2F)n1 [Compound 162] | 6.4 | 100 to 1000
CNc1nccc(-c2sc(N3CCC(F)(F)CC3)nc2-c2cccc(NS(=O)(=O)c3c(F)cccc3F)c2F)n1 [Compound 164] | 25.4 | 100 to 1000
CNc1nccc(-c2sc(NCC(F)(F)F)nc2-c2cccc(NS(=O)(=O)c3c(F)cccc3F)c2F)n1 [Compound 165] | 9.9 | 100 to 1000
Cc1ccc(F)c(S(=O)(=O)Nc2cccc(-c3nc(-c4cncc(F)c4)sc3-c3ccnc(NCCO)n3)c2F)c1F [Compound 167] | 15.9 | > 1000
CNc1nccc(-c2sc(N3CC(F)(F)C3)nc2-c2cccc(NS(=O)(=O)c3c(F)cccc3F)c2F)n1 [Compound 168] | 12.7 | 100 to 1000
Cc1ccc(F)c(S(=O)(=O)Nc2cccc(-c3nc(-c4cncc(F)c4)sc3-c3ccnc(NC4CC4)n3)c2F)c1F [Compound 169] | 9.1 | > 1000
O=S(=O)(Nc1cccc(-c2nc(-c3cncc(F)c3)sc2-c2ccnc(NC3CC3)n2)c1F)c1c(F)ccc(Cl)c1F [Compound 171] | 5.6 | > 1000
O=S(=O)(Nc1cccc(-c2nc(-c3cncc(F)c3)sc2-c2ccnc(NCCO)n2)c1F)c1c(F)ccc(Cl)c1F [Compound 172] | 5.4 | > 1000
Cc1ccc(-c2nc(-c3cccc(NS(=O)(=O)c4c(F)ccc(C)c4F)c3F)c(-c3ccnc(NC4CC4)n3)s2)nn1 [Compound 173] | 10.3 | > 1000
Cc1ccc(-c2nc(-c3cccc(NS(=O)(=O)c4c(F)ccc(C)c4F)c3F)c(-c3ccnc(NCCO)n3)s2)nn1 [Compound 174] | 17.5 | > 1000
Cc1ccc(-c2nc(-c3cccc(NS(=O)(=O)c4c(Cl)ccc(C)c4Cl)c3F)c(-c3ccnc(NC4CC4)n3)s2)nn1 [Compound 175] | 6.5 | > 1000
CNc1nccc(-c2sc(N(C)C)nc2-c2cccc(NS(=O)(=O)c3c(F)ccc(C)c3F)c2F)n1 [Compound 180] | 13 | > 1000
CNc1nccc(-c2sc(N(C)CC(F)(F)F)nc2-c2cccc(NS(=O)(=O)c3c(F)cccc3F)c2F)n1 [Compound 181] | 7.8 | 100 to 1000
Cc1ccc(F)c(S(=O)(=O)Nc2cccc(-c3nc(N(C)C)sc3-c3ccnc(NC4CC4)n3)c2F)c1F [Compound 183] | 11.2 | > 1000
CN(C)c1nc(-c2cccc(NS(=O)(=O)c3c(F)ccc(Cl)c3F)c2F)c(-c2ccnc(NC3CC3)n2)s1 [Compound 187] | 7.3 | > 1000
CC(C)(C)c1nc(-c2cccc(NS(=O)(=O)c3c(F)ccc(Cl)c3F)c2F)c(-c2ccnc(NC3CC3)n2)s1 [Compound 188] | 11.4 | > 1000
CNc1nccc(-c2sc(N3CCC(F)(F)CC3)nc2-c2cccc(NS(=O)(=O)c3c(F)ccc(C)c3F)c2F)n1 [Compound 189] | 18.5 | > 1000

Other lines, results leading:

IC50 (CSK protein) [nM] | IC50 (LCK protein) [nM] | Compound
30.3 | > 1000 | COc1ccn2c(-c3ccnc(NCCO)n3)c(-c3cccc(NS(=O)(=O)c4c(Cl)ccc(C)c4Cl)c3F)nc2c1 [Compound 147]
8.1 | > 1000 | Cc1ncc(-c2nc(-c3cccc(NS(=O)(=O)c4c(Cl)cccc4Cl)c3F)c(-c3ccnc(NCCO)n3)s2)cn1 [Compound 150]
6 | > 1000 | Cc1ncc(-c2nc(-c3cccc(NS(=O)(=O)c4c(Cl)ccc(C)c4Cl)c3F)c(-c3ccnc(NCCO)n3)s2)cn1 [Compound 152]
10.1 | > 1000 | CNc1nccc(-c2sc(N3CCCCC3)nc2-c2cccc(NS(=O)(=O)c3c(F)ccc(C)c3F)c2F)n1 [Compound 161]
7.4 | 100 to 1000 | O=S(=O)(Nc1cccc(-c2nc(N3CCCCC3)sc2-c2ccnc(NC3CC3)n2)c1F)c1c(F)cccc1F [Compound 163]
13.5 | 100 to 1000 | CNc1nccc(-c2sc(N3CCCCC3)nc2-c2cccc(NS(=O)(=O)c3c(Cl)cccc3Cl)c2F)n1 [Compound 166]
10.2 | > 1000 | Cc1ccc(F)c(S(=O)(=O)Nc2cccc(-c3nc(N4CCCCC4)sc3-c3ccnc(NC4CC4)n3)c2F)c1F [Compound 176]
14.1 | > 1000 | CNc1nccc(-c2sc(N3CCCCC3)nc2-c2cccc(NS(=O)(=O)c3c(Cl)ccc(C)c3Cl)c2F)n1 [Compound 177]
7.5 | > 1000 | Cc1ccc(Cl)c(S(=O)(=O)Nc2cccc(-c3nc(N4CCCCC4)sc3-c3ccnc(NCCO)n3)c2F)c1Cl [Compound 178]
6.2 | > 1000 | Cc1ccc(Cl)c(S(=O)(=O)Nc2cccc(-c3nc(N4CCCCC4)sc3-c3ccnc(NC4CC4)n3)c2F)c1Cl [Compound 179]
8.3 | > 1000 | CNc1nccc(-c2sc(N(C)C)nc2-c2cccc(NS(=O)(=O)c3c(Cl)ccc(C)c3Cl)c2F)n1 [Compound 182]
5.2 | > 1000 | O=S(=O)(Nc1cccc(-c2nc(N3CCCC3)sc2-c2ccnc(NC3CC3)n2)c1F)c1c(F)ccc(Cl)c1F [Compound 184]
4.9 | > 1000 | O=S(=O)(Nc1cccc(-c2nc(N3CCCCC3)sc2-c2ccnc(NC3CC3)n2)c1F)c1c(F)ccc(Cl)c1F [Compound 185]
4.1 | > 1000 | O=S(=O)(Nc1cccc(-c2nc(N3CCC3)sc2-c2ccnc(NC3CC3)n2)c1F)c1c(F)ccc(Cl)c1F [Compound 186]
